Measured values: patent publication US10683327B2, “Compounds, linker-drugs and ligand-drug conjugates” (priority 2015, dated 2020)
Read-outs that look alike come from different tables or passages of the source. Numbered stars: 1 amine (or outer) side, 2 acyl side, 3 side chain; on linkers, the order of the positions; unused ones are H or OH. Square brackets hold non-standard residues; d marks the D form. Peptide text beside a SMILES is read from it. * marks the point of attachment. ξ: configuration not given here. X1 = CC[C@H](C)[C@H]([C@@H](CC(=O)[*:2])OC)N(C)[*:1]; Phe(4-NO2) = N[C@@H](Cc1ccc([N+](=O)[O-])cc1)C(=O)O; Dolaproine = CO[C@@H]([C@@H]1CCCN1)[C@@H](C)C(=O)O; ξDil = CC[C@H](C)C([C@@H](CC(=O)[*:2])OC)N(C)[*:1]; Dil = CC[C@H](C)[C@H](NC)[C@@H](CC(=O)O)OC; Phe(4-NH2) = Nc1ccc(C[C@H](N)C(=O)O)cc1; NMe2Val = CC(C)[C@@H](C(=O)*)N(C)C; X2 = C[C@@H](N*)[C@@H](O)c1ccccc1; NMeV = CN[C@H](C(=O)O)C(C)C; ξF = NC(Cc1ccccc1)C(=O)O; ξV = CC(C)C(N)C(=O)O

Test system: FaDu cells
Assay: Potency of AF derivatives: FaDu cell viability by the MTT method
Assay type: cell-based
Conditions: for IC50: exposure to toxins for 120 hours, MTT; for potency in FaDu cells compared with MMAE and auristatin F (AF): statement in words on Table 2
Procedure: FaDu cells were seeded in Corning CellBIND 96-well plates at densities of 2500 cells/well. […] Then, the cells were rinsed once and assayed for cell viability with the MTT method. The old medium was aspirated and 100 uL of 0.5 mg/mL MTT containing medium was added into each well. After incubation for 4 hours, the MTT reagent was removed and the precipitate was dissolved in DMSO. The photometry intensity of the cells was measured by the microplate reader (Multiskan Ascent, Thermo Labsystems) of absorbance wavelength at 570 nm. Cell viability was calculated by the following equation. Cell Viability (%)=(Ins−Inb)/(Inc−Inb)×100%
In this equation, “Ins” is the photometry intensity of the cells incubated with a given toxin, “Inb” is the intensity of a blank well without cell seeding, and “Inc” is the intensity of the cells incubated with the culture medium only (positive control).

Question: Which IC50 (n=6) does the source give for `CC[C@H](C)C([C@@H](CC(=O)N1CCC[C@H]1[C@H](OC)[C@@H](C)C(=O)NC(Cc1ccc(N)cc1)C(=O)Nc1cnc2ccccc2c1)OC)N(C)C(=O)C(NC(=O)[C@H](C(C)C)N(C)C)C(C)C` (some centres unmarked) [3AQ-AAF] here?
Answer: 0.49 nM

Question: Which results are given for `CC[C@H](C)C([C@@H](CC(=O)N1CCC[C@H]1[C@H](OC)[C@@H](C)C(=O)NC(Cc1ccc(N)cc1)C(=O)NCCc1ccccc1)OC)N(C)C(=O)C(NC(=O)[C@H](C(C)C)N(C)C)C(C)C` (some centres unmarked) [PEA-ANF]?
Answer: IC50 (n=6): 1.26 nM; potency in FaDu cells compared with MMAE and auristatin F (AF): comparable to the well-known toxin MMAE

Question: What does the source list for `CC[C@H](C)C([C@@H](CC(=O)N1CCC[C@H]1[C@H](OC)[C@@H](C)C(=O)NC(Cc1ccc(N)cc1)C(=O)Nc1cnc2ccccc2c1)OC)N(C)C(=O)C(NC(=O)[C@H](C(C)C)N(C)C)C(C)C` (some centres unmarked) [3AQ-ANF]?
Answer: IC50 (Homo sapiens, FaDu, 120 h, n=6): 0.35 nM; potency in FaDu cells compared with MMAE and auristatin F (AF): comparable to the well-known toxin MMAE

Question: For `CC[C@H](C)[C@@H]([C@@H](CC(=O)N1CCC[C@H]1[C@H](OC)[C@@H](C)C(=O)N[C@H](C)[C@@H](O)c1ccccc1)OC)N(C)C(=O)[C@@H](NC(=O)[C@@H](NC)C(C)C)C(C)C` [MMAE, reference compound] (H-[NMeV]V[Dil][Dolaproine]-X2), which IC50 (n=6, read-out: IC50) is on record?
Answer: 0.38 nM

Question: Which IC50 (n=6) does the source give for `CC[C@H](C)C([C@@H](CC(=O)N1CCC[C@H]1[C@H](OC)[C@@H](C)C(=O)NC(Cc1ccc(N)cc1)C(=O)NCCc1ccccc1)OC)N(C)C(=O)C(NC(=O)[C@H](C(C)C)N(C)C)C(C)C` (some centres unmarked) [PEA-AAF] here?
Answer: 0.39 nM

Question: Which results are given for `CC[C@H](C)C([C@@H](CC(=O)N1CCC[C@H]1[C@H](OC)[C@@H](C)C(=O)NC(Cc1ccccc1)C(=O)NCCc1ccc(N)cc1)OC)N(C)C(=O)C(NC(=O)[C@H](C(C)C)N(C)C)C(C)C` (some centres unmarked) [APEA-AF]?
Answer: IC50 (Homo sapiens, FaDu, 120 h, n=6): 0.7 nM; potency in FaDu cells compared with MMAE and auristatin F (AF): comparable to the well-known toxin MMAE

Question: With `CC[C@H](C)C([C@@H](CC(=O)N1CCC[C@H]1[C@H](OC)[C@@H](C)C(=O)NC(Cc1ccccc1)C(=O)N[C@@H](Cc1ccc([N+](=O)[O-])cc1)C(=O)O)OC)N(C)C(=O)C(NC(=O)[C@H](C(C)C)N(C)C)C(C)C` (some centres unmarked) [NPEA(COOH)-AF] (NMe2Val-[ξV][ξDil][Dolaproine][ξF][Phe(4-NO2)]-OH) as the compound, how does the IC50 (Homo sapiens, FaDu, 120 h, n=6) read?
Answer: 23.2 nM

Question: How did the IC50 (Homo sapiens, FaDu, 120 h, n=6) turn out when `CC[C@H](C)C([C@@H](CC(=O)N1CCC[C@H]1[C@H](OC)[C@@H](C)C(=O)NC(Cc1ccccc1)C(=O)N[C@@H](Cc1ccc([N+](=O)[O-])cc1)C(=O)OC)OC)N(C)C(=O)C(NC(=O)[C@H](C(C)C)N(C)C)C(C)C` (some centres unmarked) [NPEA(COOMe)-AF] (NMe2Val-[ξV][ξDil][Dolaproine][ξF][Phe(4-NO2)]-OMe) was run?
Answer: 0.44 nM

Question: What about the “potency in FaDu cells compared with MMAE and auristatin F (AF)” value of the same compound?
Answer: comparable to the well-known toxin MMAE

Question: `CC[C@H](C)[C@H]([C@@H](CC(=O)N1CCC[C@H]1[C@H](OC)[C@@H](C)C(=O)NC(Cc1ccccc1)C(=O)N[C@@H](Cc1ccc(N)cc1)C(=O)O)OC)N(C)C(=O)[C@@H](NC(=O)[C@H](C(C)C)N(C)C)C(C)C` (some centres unmarked) [APEA(COOH)-AF] (NMe2Val-V[X1][Dolaproine][ξF][Phe(4-NH2)]-OH) was tested. Which IC50 (Homo sapiens, FaDu, 120 h, n=6) did it give?
Answer: > 100 nM

Question: What about the “potency in FaDu cells compared with MMAE and auristatin F (AF)” value of the same compound?
Answer: least potency

Question: Which results are given for `CC[C@H](C)[C@H]([C@@H](CC(=O)N1CCC[C@H]1[C@H](OC)[C@@H](C)C(=O)NC(Cc1ccccc1)C(=O)N[C@@H](Cc1ccc(N)cc1)C(=O)OC)OC)N(C)C(=O)[C@@H](NC(=O)[C@H](C(C)C)N(C)C)C(C)C` (some centres unmarked) [APEA(COOMe)-AF] (NMe2Val-V[X1][Dolaproine][ξF][Phe(4-NH2)]-OMe)?
Answer: IC50 (Homo sapiens, FaDu, 120 h, n=6): 0.93 nM; potency in FaDu cells compared with MMAE and auristatin F (AF): comparable to the well-known toxin MMAE

Question: How did the IC50 (n=6, read-out: IC50) turn out when `CC[C@H](C)[C@@H]([C@@H](CC(=O)N1CCC[C@H]1[C@H](OC)[C@@H](C)C(=O)N[C@@H](Cc1ccccc1)C(=O)O)OC)N(C)C(=O)[C@@H](NC(=O)[C@H](C(C)C)N(C)C)C(C)C` [AF, auristatin F, reference compound] (NMe2Val-V[Dil][Dolaproine]F-OH) was run?
Answer: 15.2 nM
